Results taken from patent US20200215018A1, “Gold(I) And Platinum(II) With Isocyanide Ligand Complexes: Synthesis And Biological Activity” (BOARD OF TRUSTEES OF THE UNIVERSITY OF ARKANSAS, priority 2019, published 2020).
Read-outs that look alike come from different tables or passages of the source.

Assays:
breast carcinoma (MCF-7) = assay: In vitro cytotoxicity against MCF-7; type: cell-based, human
lung carcinoma (A549) = assay: In vitro cytotoxicity against A549
[1] = tested on: ovarian carcinoma (SKOV3); assay: In vitro cytotoxicity against SKOV3; type: cell-based, human
[2] = tested on: MCF-10A; normal human epithelial breast cell line; assay: Proliferation of non-tumoral cell line MCF-10A; type: cell-based; settings: Table 3, non-cancerous cell line; read-out: (IC50 ± SD) μM MCF-10A
Protocol: In addition, to verify the selectivity between cancer and normal cell line, the effects of these compounds on the proliferation of non-tumoral cell line (MCF-10A; normal human epithelial breast cell line) were also determined. […] In order to gain some more insight in the structure-activity relationship of the synthesized trans-Pt(II) complexes, the chemical descriptors of them such as surface area, volume, hydration energy, logP (measure of lipophilicity), refractivity (measuring the total polarizability of a mole of a compound), polarizability and mass were calculated using Hyperchem 8 software. The greater logP (lipophilicity) of complex 3a confirmed the importance of this descriptors for the cytotoxic activity of the trans-Pt(II) complexes.

SKOV3 cells = assay: Intracellular ROS determination by flow cytometry (DCFH-DA); type: cell-based, human; settings: SKOV3, 10, 20, 40 μM
Protocol: Changes in ROS levels were expressed as a ratio of the mean fluorescence intensity (MFI) in each condition divided by the basal intensity of the ROS at the untreated cells (negative controls, MFI0).
Flow cytometry was used for determination of cellular reactive oxygen species (ROS) in SKOV3 cell line after treatment with complex 3a. In this highly sensitive method, to consider ROS formation, SKOV3 cells were treated with complex 3a and H2O2 (positive control) and stained with 2′,7′-Dichlorodihydrofluorescein diacetate (DCFH-DA), a cell-permanent non-fluorescent dye which is oxidized by cellular ROS and produce 2′,7′-dichlorofluorescein (DCF) fluorescent component. The intensity of DCF is a direct estimate of the amount of ROS within the cells.

pCDNA plasmid = assay: Electrophoresis mobility shift assay, pCDNA plasmid; type: binding; settings: 100 to 800 uM, 24 h and 48 h
Protocol: FIG. 5 illustrates an electrophoresis mobility shift assay for platinum compounds for an embodiment of the present invention. A pCDNA plasmid in the circular form was incubated with cisplatin, 1b, and 2a at different concentrations for 24 h (A) and 48 h (B).
Electrophoresis mobility shift assay is a common method that is applied to show the interaction of compounds with DNA. […] The shift was more notable with an increase in the concentrations from 100 to 800 uM, especially in the case of complex 2a; however, this compound at a higher concentration seemed to interact with the KBC loading dye and was trapped in the wells.

MCF-7 cells [3] = settings: for percentages of apoptotic cells (Annexin V+ cells): 48 hours incubation; for living cells (Annexin V−/7-AAD− cells): 48 hours; for percentage of the cells in early apoptotic phase: 48 h
Protocol: Representative scatter plots show apoptosis of MCF-7 cells after 48 hours of incubation with different concentrations of (20, 40, and 80 mM) using the Annexin V-PE/7AAD detection kit. The percentages of apoptotic cells (Q2: late apoptotic and Q3: early apoptotic) were determined in Annexin V cells. Q1: necrotic cells, Q2: late apoptotic cells, Q3: early apoptotic cells, and Q4: living cells.

MCF-7 cells [4] = settings: MCF-7, compared to untreated cells
Text: Quantitation of DNA content using flow cytometry or cell cycle analysis, is a basic method which is commonly used to assess the mechanisms of antiproliferative effects of anticancer drugs. In this method, a fluorescent DNA binding dye (in the present study: propidium iodide, PI) is used to stain DNA and measure the amount of DNA present in the cell. The cells in the G2 phase are expected to absorb approximately twice the amount of color compared to the cells in G1 as their DNA content has been doubled during S phase. Therefore, the cells in S phase have more DNA than G1 cells but less than G2 ones.

MCF-7 cells [5] = assay: Comet assay (genotoxicity); type: cell-based, human
Text: (§1) Here, comet assay was used as a valuable method to predict the genotoxic effect of new synthesized trans-Pt(II) complexes on cancerous cells. In this single cell microgel electrophoresis method, following the DNA damage, the migration of chromosomal DNA from the nucleus increases and resembles the shape of a tail or comet. The longer tails display the more genotoxicity, while untreated cells as un-fragmented cells, represent a little or no tail.
(§2) This is also effected by differences in the concentrations of complex 3a in comparison to untreated cells (negative control). pGEM-FT plasmid in circular form was incubated with different concentrations of cisplatin (positive controls) as well as complex 3a for 24 h.

pGEM-FT plasmid = assay: Electrophoresis mobility shift assay, pGEM-FT plasmid; type: binding; settings: 24 h, compared to cisplatin positive control
Protocol: FIG. 10 is a mobility shift assay of 1a compound. pGEM-FT plasmid in circular form was incubated with different concentrations of cisplatin (positive controls) as well as compound 1a for 24 h for additional embodiments of the present invention.
as §1, with “tail. […] It could also be seen that compared to the untreated control, complex 3a could make a nick in DNA and subsequently slightly shift the mobility of the plasmid in a dose dependent manner. These observations confirm the direct interaction of complex 3a with DNA through genotoxic effect as observed in comet assay.” for “tail.”
as §2

[6] = Table 1, Pt(II) isocyanide series 1a-c, 2a-c, read-out: IC50 (μM ± SD) MCF-7
[7] = Table 3, trans-Pt(II) thiolate series A, 3a-e, read-out: (IC50 ± SD) μM MCF-7
[8] = gold(I) complex study, read-out: IC50 MCF-7
[9] = read-out: (IC50 ± SD) μM A549, Table 3, trans-Pt(II) thiolate series A, 3a-e and ligands
[10] = read-out: IC50 (μM ± SD) A549, Table 1, Pt(II) isocyanide series 1a-c, 2a-c
[11] = read-out: IC50 A549, gold(I) complex study
[12] = Table 1, Pt(II) isocyanide series 1a-c, 2a-c, read-out: IC50 (μM ± SD) SKOV3
[13] = Table 3, trans-Pt(II) thiolate series A, 3a-e, read-out: (IC50 ± SD) μM SKOV3
[14] = gold(I) complex study, read-out: IC50 SKOV3
[15] = Homo sapiens, A549, read-out: (IC50 ± SD) μM A549

N.N.[Cl][Pt][Cl] [Cisplatin, reference compound]
IC50 (breast carcinoma (MCF-7); [6]): 13.4 µM
IC50 (breast carcinoma (MCF-7); [7]): 11.6 µM
IC50 (breast carcinoma (MCF-7); [8]): 11.5 µM
IC50 (lung carcinoma (A549); [9]): 9.71 µM
IC50 (lung carcinoma (A549); [10]): 6.68 ± 0.72 µM
IC50 (lung carcinoma (A549); [11]): 7.62 µM
IC50 [1, 12]: 14.6 ± 1.3 µM
IC50 [1, 13]: 14.5 µM
IC50 [1, 14]: 12.4 µM
IC50 [2]: 29.5 ± 1.03 µM

OO [H2O2, reference compound]
ROS production (MFI/MFI0) (SKOV3 cells): induce ROS production within 20 minutes

C=CCP(c1ccccc1)c1ccccc1 [PPh2allyl, allyldiphenylphosphine]
IC50 (lung carcinoma (A549); [15]): > 100 µM

Sc1nc2ccccc2[nH]1 [Sbi, benzimidazole-2-thiol]
IC50 (lung carcinoma (A549); [15]): > 100 µM

Sc1nc2ccccc2s1 [Sbt, benzothiazole-2-thiol]
IC50 (lung carcinoma (A549); [15]): > 100 µM

Sc1ccccn1 [Spy, pyridine-2-thiol]
IC50 (lung carcinoma (A549); [15]): > 100 µM

FC(F)(F)c1ccc(S)nc1 [Spy-5-CF3, 5-(trifluoromethyl)-pyridine-2-thiol]
IC50 (lung carcinoma (A549); [15]): > 100 µM

Sc1ncccn1 [SpyN, pyrimidine-2-thiol]
IC50 (lung carcinoma (A549); [15]): > 100 µM

[CH3][Pt-2]([CH3])([C]#[N+]Cc1ccccc1)[C]#[N+]Cc1ccccc1 [complex 1b, [Me2Pt(CNR)2] (R=benzyl)]
IC50 (breast carcinoma (MCF-7); [6]): 12.5 µM
IC50 (lung carcinoma (A549); [10]): 21.4 ± 2.18 µM
shift in the mobility of the plasmid (pCDNA plasmid): obvious shift in the mobility of the plasmid
percentages of apoptotic cells (Annexin V+ cells) (MCF-7 cells [3]; 80 uM): 77.22%
percentages of apoptotic cells (Annexin V+ cells) (MCF-7 cells [3]): 27.36%
living cells (Annexin V−/7-AAD− cells) (MCF-7 cells [3]; highest concentration (80)): 15.3%
living cells (Annexin V−/7-AAD− cells) (MCF-7 cells [3]; lowest concentration (20)): 72.1%
IC50 [1, 12]: 15.9 ± 1.25 µM

[CH3][Pt-2]([CH3])([C]#[N+]C1CCCCC1)[C]#[N+]C1CCCCC1 [complex 1c, [Me2Pt(CNR)2] (R=cyclohexyl)]
IC50 (breast carcinoma (MCF-7); [6]): 68.3 ± 3.21 µM
IC50 (lung carcinoma (A549); [10]): 50.8 ± 1.64 µM
IC50 [1, 12]: 44.6 ± 1.17 µM

[C](#[N+]Cc1ccccc1)[Au-][S]c1ncccn1 [complex 2]
IC50 (breast carcinoma (MCF-7); [8]): 6.14 µM
IC50 (lung carcinoma (A549); [11]): 7.8 µM
induction of cellular apoptosis (MCF-7 cells [3]; gold(I) complex study, MCF-7): induces apoptosis in cancerous cells in a dose-dependent manner
IC50 [1, 14]: 6.26 µM

Cc1cc[c]([Pt-2]([C]#[N+]C(C)(C)C)([C]#[N+]C(C)(C)C)[c]2ccc(C)cc2)cc1 [complex 2a, [(p-tolyl)2Pt(CNR)2] (R=t-butyl)]
IC50 (breast carcinoma (MCF-7); [6]): 11.1 ± 0.59 µM
IC50 (lung carcinoma (A549); [10]): 19.2 ± 2.59 µM
shift in the mobility of the plasmid (pCDNA plasmid): obvious shift in the mobility of the plasmid
IC50 [1, 12]: 18.5 ± 2.38 µM

Cc1cc[c]([Pt-2]([C]#[N+]Cc2ccccc2)([C]#[N+]Cc2ccccc2)[c]2ccc(C)cc2)cc1 [complex 2b, [(p-tolyl)2(CNR)2] (R=benzyl)]
IC50 (breast carcinoma (MCF-7); [6]): 62.3 ± 1.67 µM
IC50 (lung carcinoma (A549); [10]): 31.2 ± 2.27 µM
IC50 [1, 12]: 55.3 ± 2.19 µM

Cc1cc[c]([Pt-2]([C]#[N+]C2CCCCC2)([C]#[N+]C2CCCCC2)[c]2ccc(C)cc2)cc1 [complex 2c, [(p-tolyl)2(CNR)2] (R=cyclohexyl)]
IC50 (breast carcinoma (MCF-7); [6]): 72.4 ± 2.32 µM
IC50 (lung carcinoma (A549); [10]): 44.3 ± 1.38 µM
IC50 [1, 12]: 67.1 ± 1.54 µM

C=CC[P+](c1ccccc1)(c1ccccc1)[Pt-2]([S]c1ccccn1)([S]c1ccccn1)[P+](CC=C)(c1ccccc1)c1ccccc1 [complex 3a, trans-[Pt(PPh2allyl)2(κ^1—S—SR)2]]
IC50 (breast carcinoma (MCF-7); [7]): 4.8 µM
IC50 (lung carcinoma (A549); [9]): 4.31 µM
percentage of the cells in early apoptotic phase (MCF-7 cells [3]; 2.5 μM): 11.0%
percentage of the cells in early apoptotic phase (MCF-7 cells [3]; 5 μM): 40.8%
percentage of the cells in early apoptotic phase (MCF-7 cells [3]; 10 μM): 62.9%
IC50 [1, 13]: 6.23 µM
ROS production (MFI/MFI0) (SKOV3 cells): moderately induce ROS
effect on the cell cycle (MCF-7 cells [4]): no clear effect
IC50 [2]: 38.4 ± 2.06 µM
genotoxic effect (comet tail) (MCF-7 cells [5]; MCF-7, 10 and 50 μM): strong genotoxic ability
shift in the mobility of the plasmid (pGEM-FT plasmid): a little shift

C=CC[P+](c1ccccc1)(c1ccccc1)[Pt-2]([Cl])([Cl])[P+](CC=C)(c1ccccc1)c1ccccc1 [complex A, cis-[Pt(PPh2allyl)2Cl2]]
IC50 (breast carcinoma (MCF-7); [7]): 19 ± 1.24 µM
IC50 (lung carcinoma (A549); [9]): 22.5 ± 1.62 µM
IC50 [1, 13]: 34.5 ± 1.53 µM
IC50 [2]: 68.7 ± 1.21 µM

COc1cccc2c1C(=O)c1c(O)c3c(c(O)c1C2=O)C[C@@](O)(C(=O)CO)C[C@@H]3O[C@H]1C[C@H](N)[C@H](O)[C@H](C)O1 [doxorubicin, reference compound]
percentage of degraded DNA in the tail (MCF-7 cells [5]; MCF-7, positive control, vs untreated cells): remarkably increased
